In patent publication US20250281481A1, “NALTREXONE FOR BOOSTING THE THERAPEUTIC UTILTY OF 5-HT RECEPTOR AGONISTS” (LDN Pharma Limited, priority 2021, published 2025):

Columns and labels:
Type in all cases: cell-based, human
[1] = tested on: 5-HT receptor 1E, mRNA (HTR1E); assay: Microarray gene expression in CD3+ lymphocytes, HTR1E; details: 4 h, probe 1794095
Protocol: (§1) CD3+ lymphocytes were isolated from the blood of haematologically normal volunteers. Cells placed into 25 cm^3 flasks at a concentration of 1×10^6/ml, and left to equilibrate in an incubator with a humidified atmosphere and 5% CO2 in air at 37° C. […] RNA extraction was performed using Trizol according to standard procedures, before being processed for microarray analysis according to the standard methodologies. Briefly, equal amounts of biotinylated cRNA was hybridised to the Illumina human HT12-v3 arrays for 18 h and subsequently processed according to manufacturer's instructions before scanning on an Illumina BeadArray Reader. The image data were processed using default values in GenomeStudio v2009.1 with imputation of missing data, before loading onto GeneSpring v9.0 for data normalisation and filtering. Data analyses were performed using Excel software, and the ratio of gene expression signals in treated vs. untreated calculated.

[2] = tested on: 5-HT receptor 2B, mRNA (HTR2B); assay: Microarray gene expression in CD3+ lymphocytes, HTR2B; details: 4 h, probe 1735764
Protocol: as §1

[3] = tested on: 5-HT receptor 3A, transcript variant 2, mRNA (HTR3A); assay: Microarray gene expression in CD3+ lymphocytes, HTR3A transcript variant 2; details: 4 h, probe 2371079
Protocol: as §1

[4] = tested on: 5-HT receptor 3A, transcript variant 1, mRNA (HTR3A); assay: Microarray gene expression in CD3+ lymphocytes, HTR3A transcript variant 1; details: naltrexone 10 nM, 4 h, probe 1681492
Protocol: as §1

[5] = tested on: 5-HT receptor 4, transcript variant a, mRNA (HTR4); assay: Microarray gene expression in CD3+ lymphocytes, HTR4 transcript variant a; details: 4 h, probe 1676350
Protocol: as §1

[6] = tested on: 5-HT receptor 4, transcript variant hb, mRNA (HTR4); assay: Microarray gene expression in CD3+ lymphocytes, HTR4 transcript variant hb; details: naltrexone 10 nM, 4 h, probe 1808258
Protocol: as §1

[7] = tested on: mRNA for one or more of 5-HT receptor proteins; assay: Microarray gene expression in CD3+ lymphocytes, overall statement; details: both higher dose and low dose naltrexone, 4 h
Protocol: as §1

## O=C1CC[C@@]2(O)[C@H]3Cc4ccc(O)c5c4[C@@]2(CCN3CC2CC2)[C@H]1O5 [NTX, morphinan-6-one,17-(cyclopropylmethyl)-4,5-epoxy-3,14-dihydroxy-(5α)]
[1]; naltrexone 10 nM
  gene expression signal, LDN: 101.20
[1]; naltrexone 10 uM
  gene expression signal, NTX: 95.70
[2]; naltrexone 10 nM
  gene expression signal, LDN: 147.45
[2]; naltrexone 10 uM
  gene expression signal, NTX: 177.95
[3]; naltrexone 10 nM
  gene expression signal, LDN: 124.70
[3]; naltrexone 10 uM
  gene expression signal, NTX: 151.75
[4]
  gene expression signal, LDN: 94.00
[5]; naltrexone 10 nM
  gene expression signal, LDN: 100.20
[5]; naltrexone 10 uM
  gene expression signal, NTX: 96.10
[6]
  gene expression signal, LDN: 93.50
[7]
  levels of mRNA for one or more of 5-HT receptor proteins: increase the levels of mRNA
